Results: US20220249525A1, “Fatty Acid Compounds for Prevention and Treatment of Neurodegenerative Disorders” (T OMEGA AS, priority 2019, published 2022)

Tests used:
Type in all cases: cell-based
[1] = system: HCC827 cells; experiment: Resazurin conversion cell viability/proliferation assay in HCC827 cells
Experimental: Non-small cell lung cancer cells, HCC827 (ATCC) were cultured in RPMI-1640 Glutamax medium (Sigma-Aldrich St. Louis, Mo., USA), under conventional culture conditions. Media was supplemented with 10% Fetal Bovine Serum (FBS), 1% glutamine and 1% streptomycin/penicillin (Sigma-Aldrich). HeLaNRF1/c4 reporter cells were cultured in Dulbecco's Modified Eagle's Medium (DMEM) supplemented with 10% FBS, 2 mM L-Glutamine, 100 u/ml penicillin/streptomycin (Sigma-Aldrich,). Incubation was done at 37° C. in 5% CO2.
Cell viability/proliferation was determined by the resazurin conversion assay. A total of 4000 cells were seeded in each of the 96-well plates in 100 μl of medium. After 3 hours of incubation, 100 μl of fresh medium with respective concentration of the desired compound or controls were added. Resazurin solution (Sigma-Aldrich) was added (10%, v/v in PBS) after 1 or 3 day treatment, followed by 3 hour incubation at 37° C. and 5% CO2. Resazurin fluorescence (excitation, 540 nm; emission, 590 nm) was measured and measurements were corrected for background signals. […] Relative viability was calculated from percent fluorescence relative to DMSO-treated control wells.

[2] = system: MOLM-13 human acute leukemia cells; experiment: WST-1 viability of MOLM-13 cells; conditions: for Abs450 nm (WST-1 viability): complexed to BSA
Experimental: MOLM-13 suspension cells were diluted and added to 96-well plates (15.000 cells/well).
The modified fatty acids TTA, tr-TTA, TDG (TGH) and tr-TDG (tr-TGH) were complexed to bovine serum albumin (BSA), and 10-fold dilutions of the fatty acids or BSA control were added to the wells in duplicate. Two plates were run in parallel, and WST-1 was added to the cells after 48 (plate 1) and 72 hours (plate 2). Absorbance at 450 nm measured to assess viability of the cells.

[3] = system: SH-SY5Y cells; experiment: WST-1 cell viability assay in SH-SY5Y cells; conditions: 4 days, 31-125 μM
Experimental: The fatty acids (FAs) TTA, tr-TTA, N-TTA, tr-N-TTA and (PA) were complexed with FBS following the same procedure, differing only in final stock concentration, due to variation in solubility. Approximately 0.07 g of FA was weighed in a 10 ml sterile serum tube (BD Vacutainer®, catalog no. 368430) and dissolved in sterile filtrated 0.1 M sodium hydroxide (NaOH) of a volume giving 25 mM FA, controls without FA were made, containing only NaOH and FBS. A syringe (Sterican®, catalog no. 4657577) was pierced through the rubber cap of the serum tube, and the tube was placed in an 80° C. water bath until the FAs were dissolved. Each FA-solution was then diluted in inactivated FBS to stock concentration 1 mM (N-TTA, tr-N-TTA), and 2 mM by adding the FA to a volume of 100% FBS after heating the FBS to 45° C. in a water bath. The transfer of FA to FBS had to be executed controlled and swiftly to avoid the formation of precipitates. If any precipitates in the solution were visible, the FA and a new volume of FBS were reheated, and the procedure performed again. Following successful complexation, the stock solutions were stored at −20° C. in 1 ml aliquots (CryoPure tube, Sarstedt AG & Co, Nümbrecht, Germany).
The WST-1 cell proliferation assay was performed using the kit from Roche (table 4.2.) and its accompanying procedure (version 16, February 2011) (134). The number of cells seeded to each well in the 96-well plates (Corning Inc., catalog no. 353072) varied depending on the treatment time and cell type (table 3.).
Cell suspension and medium were then transferred to each well in a volume of 100 μl in total. Subsequently, the plates were incubated for 24 hours to make the cells settle. The next day, 100 μl with FA complexed with FBS or diluted in DMSO was added to row A or B in the 96-well plate to give a defined concentration. The solution was then mixed with a pipette, and 100 μl of the medium with FA was transferred to the next well in the same column, mixed by pipetting up and down at least five times before 100 μl was transferred again to the next well in the column. This procedure was repeated until the second last, or last well in each column was reached, making a series of two-fold dilution of the FAs in the cell medium. Two parallels were performed for every treatment per run. After the addition of FAs, the plates were incubated for 24-96 hours depending on the length of the treatment.
Following the FA-treatment, the cells were studied under a microscope to ensure that visual observations matched the measured absorbance and cell activity in the assay. Subsequently, 10 μl WST-1 reagent was added to each well, and the plates were incubated for 3 hours. Due to high activity in the HuH-7 cell line, the WST-1 reagent was diluted 1:1 with PBS. Before the measurement of absorbance, the plates were placed on a shaker for 1 minute ensuring thoroughly mixing of the wells. The plates were then put straight into the spectrophotometer (SpectraMax Plus 384 Microplate Reader, Molecular Devices Corporation, San Jose, Calif., USA) to perform the measurements. […] The absorbance of the samples was measured at 450 nm, and the reference wavelength was set to 650 nm. For each well, the measured absorption at 650 nm was subtracted from the absorption at 450 nm. The measured absorbance for the treated cells was then compared to the controls (blank) containing only cells and growth medium.

SMILES: CCCCCCCCCCCCCCNCC(=O)O [N-TTA, N-tetradecylglycine]
- dose-dependent pattern of antiproliferative effects ([1]; HCC827 cells, three different concentrations): dose-dependent pattern of antiproliferative effects was found
- overall effects on cell viability and mitochondrial function (summary) ([1]; cultured cells, relatively high dosage): cytotoxic effects
- Abs450 nm (WST-1 viability) ([2]; 48 hours, 0.0625 mM): 0.9307
- Abs450 nm (WST-1 viability) ([2]; 48 hours, 0.125 mM): 0.4765
- Abs450 nm (WST-1 viability) ([2]; 48 hours, 0.25 mM): 0.5423
- Abs450 nm (WST-1 viability) ([2]; 48 hours, 0.5 mM): 0.3207
- Abs450 nm (WST-1 viability) ([2]; 48 hours, 1 mM): 0.257
- Abs450 nm (WST-1 viability) ([2]; 48 hours, 2 mM): 0.3163
- Abs450 nm (WST-1 viability) ([2]; 72 hours, 0.03125 mM): 0.4491
- Abs450 nm (WST-1 viability) ([2]; 72 hours, 0.0625 mM): 0.8073
- Abs450 nm (WST-1 viability) ([2]; 72 hours, 0.125 mM): 0.4813
- Abs450 nm (WST-1 viability) ([2]; 72 hours, 0.25 mM): 0.203
- Abs450 nm (WST-1 viability) ([2]; 72 hours, 0.5 mM): 0.175
- Abs450 nm (WST-1 viability) ([2]; 72 hours, 1 mM): 0.1893
- Abs450 nm (WST-1 viability) ([2]; 72 hours, 2 mM): 0.2359
- toxicity to leukemic cells ([2]; MOLM-13, compared with TTA and tr-TTA): toxic to leukemic cells at a lower concentration than TTA and tr-TTA
- WST-1 activity compared to untreated cells [3]: about 110%
